The numbers were not newly measured in US20190289805A1, “CULTURING METHOD FOR CULTURED LEGUMINOUS ROOTS HAVING INCREASED COUMESTROL CONTENT” (Amorepacific Corporation, priority 2016, published 2019), which cites them from elsewhere.

This series deals with mouse uterus. The following applies: oral administration.

On to `O=c1oc2cc(O)ccc2c2oc3cc(O)ccc3c12` [coumestrol], for which, under “mature mice”, the estrogen effect result is listed as “has no estrogen effect”. For the same compound, the “estrogen effect (change in weight of uterus)” value (young female mice) is “exhibits an effective estrogen effect”.
